In patent US20230009366A1, “Using Alternating Electric Fields at Different Frequencies to Increase Permeability of the Blood Brain Barrier and also to Provide Other Benefits” (Novocure GmbH, priority 2021, published 2023):

Key:
[1] = test system: U87-MG/eGFP-fLuc cells; assay: Reversibility of TTFields-induced uptake; format: cell-based, human; details: TTFields 24 h vs none vs TTFields 24 h followed by no TTFields 24 h
Protocol: To assess the reversibility of the effect of TTFields on cancer cells, U87-MG/eGFP-fLuc cells were subjected to three conditions: (1) No TTFields exposure, standard cell culture conditions (37° C., […], 5% CO2), (2) TTFields exposure for 24 h and (3) TTFields exposure for 24 h followed by no TTFields exposure for 24 h. The readouts of BLI, PpIX fluorescence (5-ALA product) and Dextran-FITC (4 kDa) fluorescence were acquired. All experimental conditions were done in triplicate. […] Here, NS=not significant; BLI=bioluminescent imaging; eGFP=enhanced green fluorescence protein; fLuc=firefly luciferase; 5-ALA=5 aminolevulinic acid; FITC=fluorescein isothiocyanate; PpIX=protoporphyrin IX; and FL=fluorescence.
In vitro tumor treating field apparatus: The coverslips were transferred to a ceramic dish of the Inovitro™ system, which in turn was mounted onto Inovitro™ base plates (Novocure Ltd., Haifa, Israel). Tumor treating fields at 200 kHz (1-4 V/cm) were applied through an Inovitro™ power generator. Incubator ambient temperatures spanned 20-27° C. with a target temperature of 37° C. in the ceramic dishes upon application of the TTFields. Duration of TTFields exposure lasted anywhere from 0.5 to 72 h, after which coverslips were removed and processed for the appropriate bioassays (see below). […]

[2] = test system: U87-MG cells on PCS-201 fibroblasts; assay: 5-ALA uptake (PpIX fluorescence), glioblastoma-fibroblast co-culture; format: cell-based, human
Protocol: During glioblastoma resection in patients, 5-ALA is used to aid neurosurgeons in delineating between the tumors and surrounding normal brain tissue. Likewise, to distinguish differences in 5-ALA uptake between glioblastoma and normal cells, a co-culture was developed where U87-MG cells were seeded in the center of a bed of PCS-201 fibroblasts and were subjected to TTFields or to no TTFields. Fluorescent and brightfield photomicrographs confirmed the presence of discrete glioblastoma vs. fibroblast cell regions in the co-culture set-up.
In particular, without TTFields exposure, the GBM cells formed many pockets of adherent neurospheres as was previously reported. […] To generate the data depicted in FIG. 18B, fluorescent panels of 5-ALA uptake (and subsequent PpIX fluorescence, Ex=558 nm, Em=583 nm) for no TTFields and TTFields were obtained. Duration of exposures are 2, 6, and 24 h. Quantification of time course of PpIX accumulation (and thus accumulation of fluorescent flux as expressed as photons/s) in the glioblastoma-fibroblast co-culture platform under TTFields exposed vs. unexposed conditions (p<0.001). Statistical analyses consisted of two-way ANOVA for no TTFields vs. TTFields conditions, and n=3 experiments per time point.

[3] = test system: U87-MG cells; assay: 5-ALA uptake (PpIX fluorescence), single culture; format: cell-based, human
Protocol: Experiments were performed to determine the effects of TTFields on uptake of 5-ALA (as measured by PpIX accumulation and its resultant fluorescence) in glioblastoma cells. Because it is difficult to distinguish the margin between tumor and normal cells using the present 5-ALA bioassay, the measurement of PpIX fluorescence was used to address this issue. Investigations were run to determine whether permeation of 5-ALA through the cellular membrane and into the glioblastoma cells could be increased with TTFields exposure. U87-MG cells were exposed or unexposed to TTFields, each for durations of 6-24 h.
To generate the data depicted in FIG. 18A, protoporphyrin IX (PpIX) fluorescence panels were obtained for TTFields-unexposed vs. TTFields-exposed U87-MG cells after 6 and 24 h of exposure. […] All monovariant statistical comparisons between no TTFields vs. TTFields samples done by Student's t-test for n=3 experiments per time point.

[4] = test system: U87-MG/GFP-Luc cells; assay: Drug sensitivity / synergy with TTFields; format: cell-based, human
[5] = test system: GBM39 cells; assay: Drug sensitivity with TTFields; format: cell-based, human; details: TTFields for 3 days vs no TTFields
[6] = test system: pcGBM2/GFP-Luc cells
[7] = test system: MCF-7 cells, wild type; assay: Intracellular accumulation of mitoxantrone; format: cell-based, human; details: 2 μM, one hour; 150 kHz, 1.62 V/cm fields
Protocol: (§1) FIG. 22C depicts the results of a similar experiment using MCF-7 human breast adenocarcinoma cell line cells and mitoxantrone (444.481 g/mol). In this experiment, both wild type and mitoxantrone resistant variants of MCF-7 cells were treated with an alternating electric field at 150 kHz with a field strength of 1.62 V/cm for 23 hours. After this 23 hour period, mitoxantrone at a concentration of 2 μM was added and incubated for one hour, during which time the alternating electric fields was continued. The intracellular accumulation of mitoxantrone was then measured. The intracellular accumulation of mitoxantrone increased for both the wild type cells (compare bar 1 to bar 3) and the mitoxantrone resistant cells (compare bar 2 to bar 4).

[8] = test system: MCF-7 cells, mitoxantrone resistant; assay: Intracellular accumulation of mitoxantrone; format: cell-based, human; details: 2 μM, one hour; 150 kHz, 1.62 V/cm fields
Protocol: as §1

[9] = test system: U87-MG cells; assay: 7-AAD accumulation by flow cytometry; format: cell-based, human; details: 300 kHz, 1.62 V/cm RMS, 24 h; only sample incubated with 7-AAD while subjected to field
Protocol: FIG. 21D depicts the results of an experiment to test how quickly the permeability drops back down after cessation of the alternating electric fields. More specifically, 7-Aminoactinomycin D (7-AAD) is a fluorescent chemical compound with a strong affinity for DNA. […] In this experiment, the cells were treated with an alternating electric field at 300 kHz with a field strength of 1.62 V/cm RMS for 24 hours, at an ambient temperature of 18° C. 7-AAD was introduced into samples at five different times: 15 minutes prior to the cessation of the alternating electric field; immediately after cessation of the alternating electric field; and 15, 30, and 60 minutes after cessation of the alternating electric field. In each case, the cells were incubated with 7-AAD for 30 minutes after introduction of the 7-AAD, followed by flow cytometry analysis of the percentage of cells with increased accumulation of the fluorescent 7-AAD for each of the different timings.
In this experiment, the cells were treated with an alternating electric field at different frequencies with a field strength of 1.62 V/cm RMS for a total of 24 hours, at an ambient temperature of 18° C. and a dish temperature of 37° C. After the first 23.75 hours, 7-AAD was added to the culture and incubated for 15 minutes during which time the alternating electric fields was continued (to complete the 24 hour period). […]

[10] = test system: MDA-MB-435 human melanoma cell line cells; assay: 7-AAD accumulation by flow cytometry; format: cell-based
Protocol: FIG. 22A depicts the results of an experiment performed to determine how alternating electric fields affect the permeability of the cell membranes of MDA-MB-435 human melanoma cell line cells. In this experiment, MDA-MB-435 cells were treated with an alternating electric field at 150 kHz with a field strength of 1.62 V/cm for 24 hours, at an ambient temperature of 18° C. and a dish temperature of 37° C. (The dish temperature in this and other examples is higher than the ambient temperature due to heating caused by the alternating electric fields.) After the first 23.75 hours, 7-AAD was added to the culture and incubated for 15 minutes during which time the alternating electric fields was continued (to complete the 24 hour period). After this 15 minute period, alternating electric field application was terminated and the cells were incubated at room temperature for an additional 15 minutes.
In a variation of this experiment, MDA-MB-435 human melanoma cell line cells were treated with an alternating electric field at 150 kHz with a field strength of 1.62V/cm for 24 hours, at an ambient temperature of 18° C. and a dish temperature of 37° C. After this 24 hour period, the alternating electric fields were turned off for 15 minutes, after which the 7-AAD was added. After waiting an additional 15 minutes, the percentage of cells with increased accumulation of the fluorescent 7-AAD was determined using flow cytometry.

[11] = test system: MDA-MB-435 cells, wild type; assay: Intracellular accumulation of doxorubicin; format: cell-based, human; details: 10 μM, one hour; 150 kHz, 1.62 V/cm fields
[12] = test system: MES-SA cells; assay: Intracellular accumulation of doxorubicin; format: cell-based; details: 10 μM, one hour; 150 kHz, 1.62 V/cm RMS, 24 hours
Protocol: FIG. 26C depicts the results of another experiment performed to determine how 150 kHz alternating electric fields affect the permeability of the cell membranes of MES-SA cells to doxorubicin (543.52 g/mol). In this experiment, MES-SA cells were treated with an alternating electric field at 150 kHz with a field strength of 1.62 V/cm RMS for 24 hours. After the first 23 hours, doxorubicin at a concentration of 10 μM was added and incubated for one hour during which time the alternating electric fields was continued (to complete the 24 hour period). The intracellular accumulation of doxorubicin was then measured.

[13] = test system: MDA-MB-235 cells; assay: Drug sensitivity / synergy with TTFields; format: cell-based
[14] = test system: MDA-MB-435 cells, doxorubicin resistant; assay: Intracellular accumulation of doxorubicin; format: cell-based, human; details: 10 μM, one hour; 150 kHz, 1.62 V/cm fields
[15] = test system: GBM39/Luc cells; assay: Drug sensitivity / synergy with TTFields; format: cell-based, human
[16] = test system: U87-MG/eGFP-fLuc cells; assay: Annexin-V-APC binding (apoptosis positive control); format: cell-based, human; details: 21 μM, TTFields-unexposed samples
Protocol: Initially, the impact of TTFields on the binding of Annexin-V-APC to the membrane of U87-MG/eGFP-fLuc cells was measured. Annexin-V-APC binding is a signature of early apoptosis which is characterized by ruffling of the membrane.

[17] = test system: human glioblastoma cells; assay: Growth inhibition by TTFields plus Withaferin A; format: cell-based
[18] = TTFields for 3 days vs no TTFields

## NCC(=O)CCC(=O)O [5-ALA, 5-aminolevulinic acid]
[1]
  reversibility of increased uptake: reversibly increase uptake
[2]; 24 h TTFields vs no TTFields, p=0.043
  ratio of PpIX fluorescence intensity, U87-MG cells over PCS-201 fibroblast cells: significantly increased
[2]; TTFields-exposed vs unexposed co-cultures, 2, 6, 24 h
  rate of PpIX fluorescence intensity increase: significantly augmented
[3]; 6 h TTFields vs no TTFields, p=0.047
  uptake of 5-ALA (PpIX fluorescence): significantly increased uptake
[3]; 24 h TTFields vs no TTFields, p=0.011
  uptake of 5-ALA (PpIX fluorescence): increase was maintained

## O=NN(CCCl)C(=O)NC1CCCCC1 [Lomustine]
[4]; [18]
  sensitivity of cells to drug: improves the sensitivity
[5]
  sensitivity of cells to drug: improves the sensitivity
[6]; [18]
  sensitivity of cells to drug: improves the sensitivity

## O=C1c2c(O)ccc(O)c2C(=O)c2c(NCCNCCO)ccc(NCCNCCO)c21 [mitoxantrone]
[7]
  intracellular accumulation of mitoxantrone: increased
[8]
  intracellular accumulation of mitoxantrone: increased

## Cc1c2oc3c(C)c(N)cc(C(=O)N[C@@H]4C(=O)N[C@H](C(C)C)C(=O)N5CCC[C@H]5C(=O)N(C)CC(=O)N(C)[C@@H](C(C)C)C(=O)O[C@@H]4C)c3nc-2c(C(=O)N[C@@H]2C(=O)N[C@H](C(C)C)C(=O)N3CCC[C@H]3C(=O)N(C)CC(=O)N(C)[C@@H](C(C)C)C(=O)O[C@@H]2C)c(N)c1=O [7-AAD, 7-Aminoactinomycin D]
[9]
  accumulation of 7-AAD: significant increase in accumulation
[10]; 150 kHz, 1.62V/cm, 24 h, 7-AAD added 15 minutes after fields turned off
  percentage of cells with increased accumulation of 7-AAD: ~20%
[10]; 150 kHz, 1.62 V/cm, 24 h, 7-AAD added for last 15 minutes of field
  percentage of cells with increased accumulation of 7-AAD: ~66%
[10]; control, alternating electric fields not applied
  percentage of cells with increased accumulation of 7-AAD: less than 5%

## COc1cccc2c1C(=O)c1c(O)c3c(c(O)c1C2=O)C[C@@](O)(C(=O)CO)C[C@@H]3O[C@H]1C[C@H](N)[C@H](O)[C@H](C)O1 [doxorubicin]
[11]
  intracellular accumulation of doxorubicin: increased
[12]
  increase of intracellular accumulation of doxorubicin: more than 2 ×
[13]
  synergy of TTFields plus drug: Evidence of synergy
[13]; [18]
  sensitivity of cells to drug: improves the sensitivity
[14]
  intracellular accumulation of doxorubicin: increased

## CC1=C(CO)C(=O)O[C@@H]([C@@H](C)[C@H]2CC[C@H]3[C@@H]4C[C@H]5O[C@]56[C@@H](O)C=CC(=O)[C@]6(C)[C@H]4CC[C@]23C)C1 [Withaferin A]
[15]
  synergy of TTFields plus drug: synergy was found
[16]
  Annexin-V-APC binding visualized via fluorescence microscopy: could be visualized
[4]
  synergy of TTFields plus drug: synergy was found
[17]
  growth of human glioblastoma cells, TTFields in conjunction with compound: synergistically inhibited the growth
[6]
  synergy of TTFields plus drug: synergy was found
